The test system of one data set is Microorganisms. Put plainly: In vitro anti-microbial activity (MIC), overall. Particulars: Experiment 1. Type of data set: cell-based. Here is the method: (§1) In accordance with the method as disclosed in Chemotherapy, Vol. 29, pages 76-79 (1981), MIC (μg/ml) of each test compound was measured.
Data set [1] concerns Bacillus subtilis ATCC 6633. The experiment in a line: MIC. Particulars: ATCC6633, gram positive. It counts as cell-based. The procedure: as §1
The test system of data set [2] is Salmonella paratyphi 1015. Put plainly: MIC. Type of data set: cell-based. The settings on record: Salmonella enterica. Here is the method: as §1
In data set [3] the test system is Klebsiella pneumoniae PCI-602. The experiment in a line: MIC. Type of data set: cell-based. Particulars: PCI602, gram negative. The procedure: as §1
Another data set has as its system Proteus Vulgaris HX-19. The experiment in a line: MIC. It counts as cell-based. Particulars: gram negative. The procedure: as §1
Data set [4] has as its system Staphylococcus aureus FDA 209P JC-1. Put plainly: MIC. Type of data set: cell-based. Particulars: FDA209P, gram positive. Here is the method:
as §1

The test system of data set [5] is Staphylococcus epidermidis. Put plainly: MIC. It counts as cell-based. The settings on record: gram positive. The procedure: as §1
The test system of data set [6] is Serratia marcescens IAM 1184. Put plainly: MIC. It counts as cell-based. The settings on record: IAM1184, gram negative. Here is the method:
as §1

The test system of data set [7] is Pseudomonas aeruginosa IFO 3445. The experiment in a line: MIC. It counts as cell-based. Here is the method:
as §1

For data set [8], the system named is Escherichia coli NIHJ JC-2. The experiment in a line: MIC. The settings on record: NIHJJC2, gram negative. It counts as cell-based. The procedure:
as §1

Data set [9] in a line: Bioavailability in oral administration in rats. The settings on record: rat. Also noted: AUC at 4 h: concentration or dose not given beside the values. Type of data set: in vivo, Wistar-strain male rats. Here is the method:
Each of the test compounds was suspended in a 0.5% sodium carboxymethylcellulose to prepare a suspension having a concentration of 5 mg/ml of the test compound.
Wistar-strain male rats (weighing 160 g ±20 g, three per group) were used. The suspension was orally administered to rats fasted 16 hours. 30, 60, 120, and 240 minutes after the administration of the test compound, blood was taken out from the rats. The blood was centrifuged at 3,000 rpm for 20 minutes to obtain a plasma sample. In the same manner as described in Experiment 2, the concentration (μg/ml) of test compound in plasma and also AUC (μg.hr/ml) were measured.

In data set [10] the test system is ddY-strain male mice. Particulars: p.o.; data reported at Nippon Kagakuryohogakkai 28th Meeting (1980, Tokyo); 10080 min; cited from earlier work.
A short description of data set [11]: Bioavailability in oral administration in mice. Type of data set: in vivo, ddY-strain male mice. Particulars: mouse. Here is the method:
Each of the test compounds was suspended in a 0.5% sodium carboxymethylcellulose to prepare a suspension having a concentration of 5 mg/ml of the compound.
ddY-strain male mice (5 week old, weighing 22 to 25 g, three per group) were used. The suspension was orally administered to mice fasted for 16 hours. The dose of the test compound was adjusted to 50 mg/kg of body weight of animal. 30, 60, 120, and 240 minutes after the administration of the test compound, blood was taken out from each mouse, and the blood sample thus obtained was centrifuged at 3,000 rpm for 20 minutes to obtain a serum sample.

Data set [12] deals with ddY-strain male mice. Particulars: i.v.; data reported at Nippon Kagakuryohogakkai 28th Meeting (1980, Tokyo); 10080 min; cited from earlier work.
Data set [13] has as its system ddY-strain male mice. The experiment in a line: in vivo. Particulars: mice, i.v., one week, Weil method; 10080 min. Type of data set: in vivo. The procedure: (§2) The acute toxicities in oral administration and intravenous injection of the test compounds were tested as follows:
(§3) In intravenous administration: Each of the test compounds was dissolved in 1N aqueous sodium hydroxide solution and thereto was added a phosphoric acid-saline buffer (pH 7.2) to prepare a test solution. The test solution was intravenously injected to ddy-strain male mice (weighing 20-25 g, five per group). One week after the administration of the test solution, the LD50 was determined in accordance with Weil method.

In data set [14] the test system is ddY-strain male mice. Put plainly: in vivo. Particulars: mice, p.o., one week, Weil method; 10080 min. Here is the method: as §2
(§4) In oral administration: To ddY-strain male mice (weighing 20-25 g, five per group) was administered orally a suspension of each test compound in a 0.5% sodium carboxymethylcellulose. […] J. Biometric Soc., 8, 249 (1959)].

The nature of data set [15]: in vivo. Type of data set: in vivo. Particulars: mouse, in vivo, iv. The procedure:
as §2, §3

The nature of data set [16]: in vivo. Particulars: mouse, in vivo, po. Here is the method:
as §2, §4

Where [17] appears, read: IFO3445, gram negative, read-out: MIC.
The mark [18] stands for this setting: plasma, rats, oral, after 30 min., read-out: Concentration in plasma.
Setting [19] is: plasma, rats, oral, after 60 min., read-out: Concentration in plasma.
Setting [20] is: plasma, rats, oral, after 120 min., read-out: Concentration in plasma.
Where [21] appears, read: plasma, rats, oral, after 240 min., read-out: Concentration in plasma.
[22] abbreviates: rats, oral, plasma, 1-4 hrs., read-out: AUC.
Where [23] appears, read: serum, mice, oral 50 mg/kg, after 30 min., read-out: Concentration in serum.
Setting [24] is: serum, mice, oral 50 mg/kg, after 60 min., read-out: Concentration in serum.
Where [25] appears, read: serum, mice, oral 50 mg/kg, after 120 min., read-out: Concentration in serum.
[26] abbreviates: serum, mice, oral 50 mg/kg, after 240 min., read-out: Concentration in serum.
[27] abbreviates: mice, oral 50 mg/kg, serum, 1-4 hrs., read-out: AUC.

≈ marks a conversion by molar mass, not a printed value. Entries after “also recorded” stand apart in the source; their conditions may differ. Where two headings read alike, the source gives them in different places. Where only a bound is given, the exact number is not on record here.

By MIC is commonly meant the smallest concentration in the dilution series that meets the test's criterion for growth inhibition. For the compound `CCn1cc(C(=O)O)c(=O)c2cnc(-n3ccnc3)cc21` [E, 1-ethyl-1,4-dihydro-7-(1-imidazolyl)-4-oxo-1,6-naphthylidine-3-carboxylic acid], in the data set with Microorganisms, the “anti-microbial activities in vitro (MIC), in words” value is recorded as “less antimicrobial activities; also recorded: far less activities”. For the same compound, the minimal inhibitory concentration (MIC) in data set [1] is 100 µg/mL (≈ 352 µM); in data set [2] it was 12.5 µg/mL (≈ 44 µM); in [3], 25 µg/mL (≈ 87.9 µM); in the data set with Proteus Vulgaris HX-19 it was 3.12 µg/mL (≈ 11 µM); in [4] it was greater than 100 µg/mL; in data set [5], greater than 100 µg/mL. For the same compound, the MIC was 100 µg/mL (≈ 352 µM) in [6], greater than 100 µg/mL in data set [7] (setting [17]) and greater than 100 µg/mL in data set [8].
What is called AUC is the area under the concentration-time curve, a measure of exposure. The term LD50 denotes the dose expected to kill half of the subjects tested. For `CCn1cc(C(=O)O)c(=O)c2cc(F)c(N3CCNCC3)cc21` [Compound A, 1-ethyl-1,4-dihydro-6-fluoro-4-oxo-7-(1-piperazinyl)quinoline-3-carboxylicacid], the results for the concentration at 0.5 h in [9] (setting [18]) and in data set [11] (setting [23]) were 1810 ± 140 ng/mL and 1050 ± 240 ng/mL, respectively. Moreover, the figures for the concentration at 1 h in [9] (setting [19]) and in [11] (setting [24]) were 1190 ± 20 ng/mL and 690 ± 70 ng/mL, respectively. The concentration at 2 h amounted to 630 ± 110 ng/mL in data set [9] (setting [20]) and 400 ± 50 ng/mL in data set [11] (setting [25]). For the same compound, the concentration at 4 h in [9] (setting [21]) turned out to be 250 ± 10 ng/mL; in [11] (setting [26]) it was 360 ± 30 ng/mL. The area under the curve (AUC) at 4 h in [9] (setting [22]) is 2990 ng·h/mL; in [11] (setting [27]) it was 2000 ng·h/mL. Also, the LD50 was > 4,000 mg/kg in the data set with ddY-strain male mice [10] and 220 mg/kg with ddY-strain male mice [12]. In addition, the MIC in data set [1] is 0.39 µg/mL (≈ 1.22 µM); in data set [2] it was 0.1 µg/mL (≈ 0.313 µM); in [3], 0.1 µg/mL (≈ 0.313 µM); in the data set with Proteus Vulgaris HX-19 it was 0.1 µg/mL (≈ 0.313 µM); in data set [4], 0.39 µg/mL (≈ 1.22 µM); in data set [5], 3.13 µg/mL (≈ 9.8 µM). For the same compound, the minimal inhibitory concentration (MIC) in [6] amounted to 0.39 µg/mL (≈ 1.22 µM); in [7] (IFO3445), 1.56 µg/mL (≈ 4.89 µM); in [8], 0.39 µg/mL (≈ 1.22 µM).
For the compound `CCn1cc(C(=O)O)c(=O)c2cc(F)c(N3CCNCC3)c(F)c21` [C, 1-ethyl-6,8-difluoro-1,4-dihydro-4-oxo-7-(1-piperazinyl)quinoline-3-carboxylic acid], the area under the curve (AUC) at 4 h in data set [9] (in vivo, po) was found to be 26000 ng·h/mL; in data set [11] (in vivo, po, 50 mg/kg), 12400 ng·h/mL. Besides, the concentration at 0.5 h in [9] (in vivo, po) is 11700 ± 1100 ng/mL; in data set [11] (in vivo, po, 50 mg/kg) it was 6260 ± 1570 ng/mL. Besides, the concentration at 1 h in data set [9] (in vivo, po) amounted to 12300 ± 800 ng/mL; in data set [11] (in vivo, po, 50 mg/kg), 3510 ± 1290 ng/mL. In addition, the concentration at 2 h in [9] (in vivo, po) worked out at 6400 ± 300 ng/mL; in [11] (in vivo, po, 50 mg/kg) it was 3410 ± 670 ng/mL. Also, the concentration at 4 h stood at 2000 ± 1800 ng/mL in data set [9] (in vivo, po) and 1530 ± 270 ng/mL in [11] (in vivo, po, 50 mg/kg). The values for the median lethal dose (LD50) in the data set with ddY-strain male mice [13] and in the data set on ddY-strain male mice [14] were 193 mg/kg and 1,072 mg/kg, respectively. Besides, the MIC stood at 0.39 µg/mL (≈ 1.16 µM) in data set [1]; 0.1 µg/mL (≈ 0.296 µM) in data set [2]; 0.1 µg/mL (≈ 0.296 µM) in [3]; 0.1 µg/mL (≈ 0.296 µM) in the data set with Proteus Vulgaris HX-19; 0.39 µg/mL (≈ 1.16 µM) in data set [4]; 3.13 µg/mL (≈ 9.28 µM) in data set [5]. In addition, the minimal inhibitory concentration (MIC) in data set [6] was 0.78 µg/mL (≈ 2.31 µM); in [7] (setting [17]), 0.78 µg/mL (≈ 2.31 µM); in data set [8], 0.2 µg/mL (≈ 0.593 µM).
With `CCn1cc(C(=O)O)c(=O)c2cc(F)c(N3CCN(C)CC3)c(F)c21` [D, 1-ethyl-6,8-difluoro-1,4-dihydro-7-[1-(4-methylpiperazinyl)]-4-oxoquinoline-3-carboxylic acid], the concentration at 0.5 h is 22600 ± 4500 ng/mL in data set [9] (setting [18]) and 14400 ± 800 ng/mL in data set [11] (setting [23]). Also, the concentration at 1 h in data set [9] (setting [19]) worked out at 24000 ± 2300 ng/mL; in [11] (setting [24]) it was 11500 ± 900 ng/mL. Besides, the concentration at 2 h in data set [9] (setting [20]) was 14600 ± 1100 ng/mL; in data set [11] (setting [25]), 6700 ± 600 ng/mL. For the same compound, the concentration at 4 h in data set [9] (setting [21]) is 9300 ± 100 ng/mL; in data set [11] (setting [26]), 3400 ± 400 ng/mL. Further, the area under the curve (AUC) at 4 h in data set [9] (setting [22]) is 60400 ng·h/mL; in data set [11] (setting [27]), 29300 ng·h/mL. Also, the LD50 at 168 h turned out to be 196 mg/kg in “in vivo [15]” and 536 mg/kg in the data set “in vivo [16]”. For the same compound, the MIC was determined as 0.2 µg/mL (≈ 0.569 µM) in [1]; 0.1 µg/mL (≈ 0.285 µM) in [2]; 0.1 µg/mL (≈ 0.285 µM) in data set [3]; 0.05 µg/mL (≈ 0.142 µM) with Proteus Vulgaris HX-19; 0.78 µg/mL (≈ 2.22 µM) in data set [4]; 1.56 µg/mL (≈ 4.44 µM) in data set [5]. The minimum inhibitory concentration (MIC) is 0.78 µg/mL (≈ 2.22 µM) in data set [6], 1.56 µg/mL (≈ 4.44 µM) in data set [7] (setting [17]) and 0.2 µg/mL (≈ 0.569 µM) in data set [8].

The record behind these values is patent publication US4530930A, “Antimicrobial 1-ethyl-6,8-difluoro-1,4-dihydro-7-(1-imidazolyl)-4-oxoquinoline-3-carbo xylic acid derivatives” (Kanebo, Ltd., priority 1982, dated 1985).
